In patent publication US7109215B2, “Compounds possessing neuronal activity” (Vertex Pharmaceuticals Incorporated, priority 1997, dated 2006):
Marks after values point to notes of the source that are not given here.

Legend:
FKBP = FKBP (Homo sapiens, UniProt P62942); test: Rotamase inhibition assay (chymotrypsin-coupled PPIase assay); format: biochemical; conditions: 15 nM FKBP, 30 μM Suc-Ala-Leu-Pro-Phe-pNA, 15° C.
Experimental: Inhibition of FKBP enzyme activity was determined in the PPIase assay described in S. T. Park et al., J. Biol. Chem., 267, pp. 3316–24 (1992), the disclosure of which is herein incorporated by reference. This is a chymotrypsin-coupled assay in which FKBP catalyzes the cis to trans isomerization of the Leu-Pro bond in the peptide substrate Suc-Ala-Leu-Pro-Phe-pNA. The trans form, but not the cis form, is cleavable by chymotrypsin. The release Phe-pNA was monitored by absorbance at 400 nm. Chymotrypsyn cleavage is very rapid and therefore cis-to-trans isomerization is rate-limiting.
Each reaction mix consisted of 0.1 M Tris buffer, pH 7.8, 15 nM FKBP, 30 μM substrate and 0.5 nM to 10 μM of compound to be tested diluted in Me2SO. The mixture was incubated at 15° C. for 5 minutes and then reaction was initiated by addition of chymotrypsin (100 μg/ml final concentration) and followed spectrophotometrically for 5 minutes. Total reaction volume was 1 ml.

[1] = system: pheochromocytoma PC12 cells; test: Neurite outgrowth quantitation in PC12 cell system; format: cell-based, rat; conditions: 1–5 ng/ml NGF, 72 hours
Experimental: In order to directly determine the neurotrophic activity of compounds described in this invention, the neurite outgrowth assay was carried out with pheochromocytoma PC12 cells as described by Lyons et al. (1994).
PC12 cells were maintained at 37° C. and 5% CO2 in Dulbecco's modified Eagle's medium (DMEM) supplemented with 10% heat-inactivated horse serum, 5% heat-inactivated fetal bovine serum (FBS), and 1% glutamate.
The cells were then plated at […] in 96 well plates coated with […] rat tail collagen and allowed to attach overnight. The medium was then replaced with DMEM, 2% heat-inactivated horse serum, 1% glutamate, 1–5 ng/ml of NGF (Sigma) and varying concentrations of the compounds of this invention (0.01 nM–10000 nM). The background control culture was administered with […] of NGF alone without compound. Positive control cultures were administered with high concentration of NGF (50 ng/ml). The cells were then incubated at 37° C. at 5% CO2 for 72 hours, fixed with 3% formaldehyde and nerve outgrowth was determined visually on a scale of 0 to 4.

HL60/Vinc cells = test: MDR sensitization (reversal) assay, doxorubicin, XTT viability; format: cell-based, human; conditions: IC50 doxorubicin alone / IC50 doxorubicin plus compound
Experimental: We carried out multidrug resistance reversal (MDR) assays using L1210vMDRC.06 or HL60/Vinc cell lines. L1210vMDRC.06 are L1210 mouse leukemia cells transduced with the pHaMDR1/A retrovirus carrying a MDR1 cDNA, as described by Pastan et al., Proc. Natl. Acad. Sci. USA, 85, pp. 4486–4490 (1988). The L1210vMDRC.06 multidrug resistant line is a cell line that has been drug-selected by culturing transfected cells in 0.06 μg/ml colchicine. The HL60/Vinc human promyleocytic leukemia cell line is a multidrug resistant cell line derived from HL60 drug-sensitive parental cells by selection in increasing concentrations of vincristine.
Assays using HL60/Vinc cells were performed by plating cells in 96 well microtiter plates at a concentration of 4×10^4 cells/well. The cells were then exposed to various concentrations of doxorubicin (9 nM to 6.7 μM) in the presence or absence of various compounds of this invention at various concentrations (0.5, 1.0, 2.5, 5.0 or 10 μM) as described in U. Germann et al., Anti-Cancer Drugs, 8, pp. 141–155 (1997). After culturing the cells for 3 days, their viability was quantitated using the XTT dye method to assess mitochondrial function (Roehm et al., supra). Results were expressed as a ratio of the IC50 for doxorubicin alone to the IC50 for doxorubicin plus compound. In all assays the intrinsic antiproliferative or cytotoxicity activity of the MDR inhibitors was also determined for HL60/Vinc cells.

FKBP, sequence (P62942 whole entry): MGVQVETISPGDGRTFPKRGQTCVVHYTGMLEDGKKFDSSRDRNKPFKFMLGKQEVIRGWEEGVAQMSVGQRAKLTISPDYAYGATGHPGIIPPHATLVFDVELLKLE

Row | SMILES | Ki (FKBP) | Neurite outgrowth, visual scale of 0 to 4 ([1]; compound 0.01 nM) | Neurite outgrowth, visual scale of 0 to 4 ([1]; compound 0.1 nM) | Neurite outgrowth, visual scale of 0 to 4 ([1]; compound 1 nM) | Neurite outgrowth, visual scale of 0 to 4 ([1]; compound 10 nM) | Neurite outgrowth, visual scale of 0 to 4 ([1]; compound 100 nM) | Neurite outgrowth, visual scale of 0 to 4 ([1]; compound 1000 nM) | Neurite outgrowth, visual scale of 0 to 4 ([1]; compound 10000 nM) | MDR Ratio (HL60/Vinc cells; compound 2.5 μM) | MDR Ratio (HL60/Vinc cells; compound 10 μM)
1 | O=C(NCc1ccncc1)C1CCCCN1 (stereo not drawn) [Compound 104] | > 50 µM | 3* | 3* | 2* | 2* | 4* | 3* | 4* | 0.6 | 
2 | CN(CCCc1cccnc1)C(=O)C1CCCCN1 (stereo not drawn) [Compound 110] | > 25 µM |  |  |  |  | 3* | 0* |  | 1.1 | 
3 | CC(=O)Nc1ccc(S(=O)(=O)N(C)[C@@H](Cc2ccccc2)C(=O)N(C)C(CCCc2cccnc2)CCCc2cccnc2)cc1 [Compound 15] |  |  |  |  | 3* | 3* | 3* |  | 2.4 | 
4 | CN(C(=O)[C@H](Cc1ccccc1)N(C)S(=O)(=O)CS(C)(=O)=O)C(CCCc1cccnc1)CCCc1cccnc1 [Compound 11] |  |  |  |  | 1* | 3* | 3* |  | 1.7 | 
5 | CNC(Cc1ccccc1)C(=O)N(C)CCCc1cccnc1 (stereo not drawn) [Compound 108] | > 25 µM |  |  |  | 0 | 3 | 0 |  | 0.4 | 
6 | COc1ccc(S(=O)(=O)N(C)[C@@H](Cc2ccccc2)C(=O)N(C)C(CCCc2cccnc2)CCCc2cccnc2)cc1OC [Compound 17] |  |  |  |  | 3* | 3* | 4* |  | 14.6 | 
7 | CN(C(=O)[C@H](Cc1ccccc1)N(C)S(=O)(=O)c1ccc(Nc2ccc([N+](=O)[O-])cc2[N+](=O)[O-])cc1)C(CCCc1cccnc1)CCCc1cccnc1 [Compound 5] |  |  |  |  | 2* | 3* | 3* |  |  | 30.4
8 | CN(CCc1ccccn1)C(=O)[C@@H]1CCCCN1S(=O)(=O)c1ccc(N)cc1 [Compound 1, N-(4-aminobenzenesulfonamido)-(S)-piperidine-2-carboxylic acid-2-((N-methyl)-2-pyridylethyl) amide] |  |  |  |  | 3*** | 1*** | 3*** |  | 0.6 | 
9 | CN(C(=O)[C@H](Cc1ccccc1)N(C)S(=O)(=O)c1ccc(C#N)cc1)C(CCCc1cccnc1)CCCc1cccnc1 [Compound 16] |  |  |  |  | 3* | 4* | 3* |  | 19.9 | 
10 | CNC(Cc1ccccc1)C(=O)N(C)C(CCCc1cccnc1)CCCc1cccnc1 (stereo not drawn) [Compound 109] |  | 3* | 4* | 4* | 3* | 2* | 4* | 3* |  | 
11 | O=C(OC(CCCc1ccncc1)CCCc1cccnc1)C1CCCCN1Cc1ccncc1 (stereo not drawn) [Compound 113] | > 50 µM |  |  |  | 3* | 4* | 4* |  | 2.3 | 
